According to the supplement of paper PMC11451515:

Legend:
Settings in all cases: 48 h
SEM cells [1] = test: cell viability relative to DMSO control; higher = less cytotoxic
How it was run: (§1)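 NOMO1 or SEM (500 cells/well) or P12-Ichikawa (1000 cells/well) leukemia cells were adapted for at least four passages in each medium. They were seeded in 1536-well plates (5 μl) and pin-dosed with library compounds in DMSO over an 11-point threefold series, 47 μM to 0.79 nM. CellTiter-Glo One luminescence was read after 48 h at 37°C. Viability is the per-plate percentage relative to DMSO wells, with cell-free wells as background.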

NOMO1 [2] = test: AUC of viability dose-response curve (% viability x log10 dose units); higher = less sensitive
How it was run: (§2)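 In 1536-well plates, leukemia cells adapted to each medium (500 or 1000 cells/well) were exposed for 48 h at 37°C to library compounds in DMSO across 11 threefold doses, 47 μM down to 0.79 nM. Viability was read by CellTiter-Glo One luminescence and normalised per plate to DMSO and cell-free wells. A four-parameter log-logistic fit over log10 doses was integrated by trapezoidal rule. This yielded the area under the curve, with over-full-viability curves scaled and quality-control failures dropped.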

P12-Ichikawa [3] = test: as above
How it was run: as §2

SEM cells [4] = test: as above
How it was run: as §2

NOMO1 [5] = test: cell viability relative to DMSO control; higher = less cytotoxic
How it was run: as §1

P12-Ichikawa [6] = test: as above
How it was run: as §1

NC/1=N/C(=O)N/C=C1F
SEM cells [1], HPLM + 10% dialyzed FBS
Settings	cell viability [%]
0.000781 µM	118
0.00234 µM	145
0.00702 µM	123
0.0211 µM	134
0.0632 µM	118
0.19 µM	125
0.569 µM	125
1.71 µM	136
5.12 µM	130
15.4 µM	120
46.1 µM	103

AUC of viability dose-response curve
Settings	NOMO1 [2]	P12-Ichikawa [3]	SEM cells [4]
HPLM + 10% dialyzed FBS	417	455	468
RPMI 5 mM glucose + 10% FBS	432	438	464
RPMI 5 mM glucose + 10% dialyzed FBS	405	432	429

COCCCOc1cc(C[C@@H](C[C@H](N)[C@@H](O)C[C@H](C(=O)NCC(C)(C)C(N)=O)C(C)C)C(C)C)ccc1OC
AUC of viability dose-response curve
Settings	NOMO1 [2]	P12-Ichikawa [3]	SEM cells [4]
HPLM + 10% dialyzed FBS	457	473	473
RPMI 5 mM glucose + 10% FBS	474	471	461
RPMI 5 mM glucose + 10% dialyzed FBS	461	475	458

Cc1cccc(C)c1NC(=O)CN1CCCC1=O
SEM cells [1], HPLM + 10% dialyzed FBS
Settings	cell viability [%]
0.000781 µM	115
0.00234 µM	121
0.00702 µM	125
0.0211 µM	123
0.0632 µM	125
0.19 µM	122
0.569 µM	126
1.71 µM	129
5.12 µM	122
15.4 µM	116
46.1 µM	103

AUC of viability dose-response curve
Settings	NOMO1 [2]	P12-Ichikawa [3]	SEM cells [4]
HPLM + 10% dialyzed FBS	463	444	470
RPMI 5 mM glucose + 10% FBS	458	434	461
RPMI 5 mM glucose + 10% dialyzed FBS	470	458	431

Cc1nc(Nc2ncc(C(=O)Nc3c(C)cccc3Cl)s2)cc(N2CCN(CCO)CC2)n1
cell viability [%]
Settings	NOMO1 [5]	P12-Ichikawa [6]	SEM cells [1]
HPLM + 10% dialyzed FBS, 0.000781 µM	90.9	108	88.1
HPLM + 10% dialyzed FBS, 0.00234 µM	104	104	106
HPLM + 10% dialyzed FBS, 0.00702 µM	102	110	93.3
HPLM + 10% dialyzed FBS, 0.0211 µM	99.9	104	98.3
HPLM + 10% dialyzed FBS, 0.0632 µM	107	111	91.7
HPLM + 10% dialyzed FBS, 0.19 µM	107	107	92
HPLM + 10% dialyzed FBS, 0.569 µM	113	107	80.2
HPLM + 10% dialyzed FBS, 1.71 µM	95.2	69.6	81.9
HPLM + 10% dialyzed FBS, 5.12 µM	83.9	14.2	54.9
HPLM + 10% dialyzed FBS, 15.4 µM	85.6	15.5	34.9
HPLM + 10% dialyzed FBS, 46.1 µM	71.9	15	29.9
RPMI 5 mM glucose + 10% FBS, 0.000781 µM	104	106	66.6
RPMI 5 mM glucose + 10% FBS, 0.00234 µM	102	109	68.9
RPMI 5 mM glucose + 10% FBS, 0.00702 µM	106	102	64.9
RPMI 5 mM glucose + 10% FBS, 0.0211 µM	101	108	78.4
RPMI 5 mM glucose + 10% FBS, 0.0632 µM	105	113	68.2
RPMI 5 mM glucose + 10% FBS, 0.19 µM	105	109	66.1
RPMI 5 mM glucose + 10% FBS, 0.569 µM	117	107	74.7
RPMI 5 mM glucose + 10% FBS, 1.71 µM	110	102	69.9
RPMI 5 mM glucose + 10% FBS, 5.12 µM	100	56.8	60.1
RPMI 5 mM glucose + 10% FBS, 15.4 µM	89.3	21.3	17.5
RPMI 5 mM glucose + 10% FBS, 46.1 µM	80.3	23.4	14.8
RPMI 5 mM glucose + 10% dialyzed FBS, 0.000781 µM	101	104	100
RPMI 5 mM glucose + 10% dialyzed FBS, 0.00234 µM	94.5	104	102
RPMI 5 mM glucose + 10% dialyzed FBS, 0.00702 µM	102	113	106
RPMI 5 mM glucose + 10% dialyzed FBS, 0.0211 µM	92.1	103	99.6
RPMI 5 mM glucose + 10% dialyzed FBS, 0.0632 µM	105	107	104
RPMI 5 mM glucose + 10% dialyzed FBS, 0.19 µM	94.3	106	99.9
RPMI 5 mM glucose + 10% dialyzed FBS, 0.569 µM	106	109	88.3
RPMI 5 mM glucose + 10% dialyzed FBS, 1.71 µM	96.2	99.3	79.2
RPMI 5 mM glucose + 10% dialyzed FBS, 5.12 µM	81	45.5	50.3
RPMI 5 mM glucose + 10% dialyzed FBS, 15.4 µM	75.9	33.7	26.4
RPMI 5 mM glucose + 10% dialyzed FBS, 46.1 µM	75.9	35.3	25.2

AUC of viability dose-response curve
Settings	HPLM + 10% dialyzed FBS	RPMI 5 mM glucose + 10% FBS	RPMI 5 mM glucose + 10% dialyzed FBS
NOMO1 [2]	448	461	447
P12-Ichikawa [3]	358	396	398

Cn1c2ccccc2c2c3c(c4c5ccccc5n(CCC#N)c4c21)CNC3=O
cell viability [%], SEM cells [1]
Settings	HPLM + 10% dialyzed FBS	RPMI 5 mM glucose + 10% dialyzed FBS
0.000781 µM	109	123
0.00234 µM	118	103
0.00702 µM	142	159
0.0211 µM	119	130
0.0632 µM	111	124
0.19 µM	98.1	107
0.569 µM	55	52.7
1.71 µM	41	39.4
5.12 µM	25.7	19
15.4 µM	18.8	18.5
46.1 µM	17.6	11.2

AUC of viability dose-response curve
Settings	NOMO1 [2]	P12-Ichikawa [3]	SEM cells [4]
HPLM + 10% dialyzed FBS	362	393	305
RPMI 5 mM glucose + 10% FBS	376	363	308
RPMI 5 mM glucose + 10% dialyzed FBS	367	367	300

O=C(NCc1ccncc1)C12C[C@H]3C[C@@H](C1)CC(c1ccc(Cl)cc1)(C3)C2
AUC of viability dose-response curve
Settings	NOMO1 [2]	P12-Ichikawa [3]	SEM cells [4]
HPLM + 10% dialyzed FBS	419	415	414
RPMI 5 mM glucose + 10% FBS	453	439	389
RPMI 5 mM glucose + 10% dialyzed FBS	451	438	420

COc1ccc(N(C(=O)Oc2c(C)cccc2C)c2ccnc(Nc3ccc(N4CCN(C)CC4)cc3)n2)c(OC)c1
AUC of viability dose-response curve
Settings	HPLM + 10% dialyzed FBS	RPMI 5 mM glucose + 10% FBS	RPMI 5 mM glucose + 10% dialyzed FBS
P12-Ichikawa [3]	466	457	459
SEM cells [4]	456	455	451

C[C@H]1O[C@H](O[C@H]2[C@H](O)[C@@H](O)[C@H](O[C@@H]2CO)O[C@H]3[C@H](O)[C@@H](O)C(O)O[C@@H]3CO)[C@H](O)[C@@H](O)[C@@H]1N[C@H]4\C=C(CO)/[C@@H](O)[C@H](O)[C@H]4O (some centres undefined)
AUC of viability dose-response curve
Settings	NOMO1 [2]	P12-Ichikawa [3]	SEM cells [4]
HPLM + 10% dialyzed FBS	330	321	437
RPMI 5 mM glucose + 10% FBS	309	335	456
RPMI 5 mM glucose + 10% dialyzed FBS	319	374	432
